Measurements taken from ChEMBL document CHEMBL3351954, “Enhanced water-soluble derivative of PC407 as a novel potential COX-2 inhibitor injectable formulation” (Bioorg Med Chem Lett, 2014).
In brackets after ≈: the same amount, converted by molar mass. Activity calls are given as the source filed them. The rule behind the calls is not given here.

Key:
[1] = target: T1, Prostaglandin G/H synthase 2 (Homo sapiens) (UniProt P35354); assay: Inhibition of recombinant COX-2 (unknown origin) at 0.1 uM
T1 sequence (whole entry): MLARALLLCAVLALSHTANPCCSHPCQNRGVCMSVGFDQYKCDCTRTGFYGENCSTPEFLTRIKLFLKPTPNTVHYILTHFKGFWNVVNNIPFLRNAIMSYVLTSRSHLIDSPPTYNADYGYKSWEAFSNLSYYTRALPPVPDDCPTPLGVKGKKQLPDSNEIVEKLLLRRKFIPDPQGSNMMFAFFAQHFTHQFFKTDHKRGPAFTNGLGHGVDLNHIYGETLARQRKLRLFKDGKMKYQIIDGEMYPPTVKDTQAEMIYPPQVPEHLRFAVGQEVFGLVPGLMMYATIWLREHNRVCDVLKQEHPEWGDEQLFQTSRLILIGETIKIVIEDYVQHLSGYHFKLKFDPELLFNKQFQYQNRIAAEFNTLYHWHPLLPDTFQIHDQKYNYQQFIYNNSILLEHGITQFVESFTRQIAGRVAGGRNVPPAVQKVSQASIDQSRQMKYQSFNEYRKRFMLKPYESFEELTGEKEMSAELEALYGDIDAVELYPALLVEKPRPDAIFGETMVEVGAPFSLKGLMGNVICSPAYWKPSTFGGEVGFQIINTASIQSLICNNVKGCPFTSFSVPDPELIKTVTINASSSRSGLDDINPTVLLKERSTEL

[2] = Solubility of the compound in water at 25 degC by HPLC analysis; format: physicochemical
Mus musculus [3] = assay: Analgesic activity in Kun Ming mouse model assessed as inhibition of acetic acid-induced visceral pain at 0.1 mmol/kg, iv administered 5 mins prior to acetic acid challenge measured after 30 mins by writhing assay relative to control; format: functional; design: scale not given: the % may be the effect or the level left
Mus musculus [4] = assay: Analgesic activity in Kun Ming mouse model assessed as inhibition of acetic acid-induced visceral pain at 0.1 mmol/kg, iv administered 5 mins prior to acetic acid challenge measured after 15 mins by writhing assay relative to control; format: functional; design: scale not given: the % may be the effect or the level left
[5] = target: Prostaglandin G/H synthase 1 (Homo sapiens) (UniProt P23219); assay: Inhibition of recombinant COX-1 (unknown origin) at 0.1 uM
Plasma [6] = assay: Drug level in Sprague-Dawley rat plasma treated with 5 mg/kg, iv after 10 mins to 4 hrs; format: ADME, organism-based; design: dose 5 mg/kg, route intravenous; settings: in vivo
[7] = target: T1, Prostaglandin G/H synthase 2 (Homo sapiens); assay: Inhibition of recombinant COX-2 (unknown origin) at 10 uM
[8] = target: Prostaglandin G/H synthase 1 (Homo sapiens) (UniProt P23219); assay: Inhibition of recombinant COX-1 (unknown origin) at 10 uM
Plasma [9] = assay: Prodrug conversion in Sprague-Dawley rat plasma assessed as PC407 formation at 5 mg/kg, iv after 1.5 hrs; format: ADME, organism-based; design: dose 5 mg/kg, route intravenous; settings: in vivo
[10] = Toxicity in iv dosed Kun Ming mouse; format: organism-based; settings: in vivo

Prostaglandin G/H synthase 1 (Homo sapiens), sequence (P23219 whole entry): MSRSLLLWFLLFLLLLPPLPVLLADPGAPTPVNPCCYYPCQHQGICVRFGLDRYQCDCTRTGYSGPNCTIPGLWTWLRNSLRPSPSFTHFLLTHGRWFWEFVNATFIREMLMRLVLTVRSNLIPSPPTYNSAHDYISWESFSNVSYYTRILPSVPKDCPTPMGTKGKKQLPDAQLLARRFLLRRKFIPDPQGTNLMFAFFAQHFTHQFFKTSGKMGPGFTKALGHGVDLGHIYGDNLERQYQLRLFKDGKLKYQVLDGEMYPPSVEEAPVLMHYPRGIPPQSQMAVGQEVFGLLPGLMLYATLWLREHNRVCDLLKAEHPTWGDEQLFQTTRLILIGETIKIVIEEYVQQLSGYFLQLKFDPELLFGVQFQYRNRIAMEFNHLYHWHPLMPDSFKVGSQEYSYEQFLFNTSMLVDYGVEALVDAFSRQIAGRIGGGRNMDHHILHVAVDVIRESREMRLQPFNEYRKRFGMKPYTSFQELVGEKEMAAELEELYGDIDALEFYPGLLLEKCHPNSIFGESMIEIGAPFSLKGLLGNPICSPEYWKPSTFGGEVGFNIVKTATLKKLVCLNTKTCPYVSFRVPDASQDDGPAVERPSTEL

inhibition [1]	inhibition [5]	Drug uptake (Plasma [6])	Structure (SMILES)	solubility [2]	Activity (Mus musculus [3])	Activity (Mus musculus [4])	inhibition [7]	inhibition [8]	Drug metabolism (Plasma [9])	MTD [10]
100%	inactive	Active	NS(=O)(=O)c1ccc(-n2nc(C(F)(F)F)cc2-c2ccc3ccccc3c2)cc1	0.0016 mg/mL (≈ 3.83 µM)	81%	83%	–	–	–	–
–	–	–	O=C([O-])CCC(=O)[N-]S(=O)(=O)c1ccc(-n2nc(C(F)(F)F)cc2-c2ccc3ccccc3c2)cc1.[Na+].[Na+]	20.3 mg/mL	83%	77%	inactive	inactive	metabolite_detected	> 1500 mg/kg
